These results are taken from ChEMBL document CHEMBL4725299, “Design and synthesis of peptidic partial agonists of human neuromedin U receptor 1 with enhanced serum stability” (Bioorg Med Chem Lett, 2020).

Starred links: 1 amine or outer side, 2 acyl side, 3 side chain; linkers in the order of their positions; H or OH if unused. Non-standard residues stand in square brackets, D forms with d. Residues, ends and D or L forms follow the SMILES beside them. *: point of attachment. X1 = O=C([C@H](Cc1ccc(Cc2ccccc2)cc1)N[*:1])[*:2]; Acetyl(2-naphthyloxy) = O=C(COc1ccc2ccccc2c1)*; Propanoyl(3-(3-pyridyl)) = O=C(CCc1cccnc1)*; Bip = N[C@@H](Cc1ccc(-c2ccccc2)cc1)C(=O)O; αMeW = C[C@](N)(Cc1c[nH]c2ccccc12)C(=O)O; 2Nal = N[C@@H](Cc1ccc2ccccc2c1)C(=O)O; Acetyl(2-thienyl) = O=C(Cc1cccs1)*; αMeF = C[C@](N)(Cc1ccccc1)C(=O)O; Tic = O=C(O)[C@@H]1Cc2ccccc2CN1 Where only a bound is given, the exact number is not on record here.

The nature of data set [1]: Stability of the compound in 25% human serum assessed as residual rate at 50 uM incubated for 10 mins at 37 degreeC. The data set is classed as ADME, cell-free. To be noted: read-out: Stabilty.
Data set [2] has as its target T1, Neuromedin-U receptor 1 (Homo sapiens, UniProt Q9HB89).
T1 sequence (Q9HB89 whole entry): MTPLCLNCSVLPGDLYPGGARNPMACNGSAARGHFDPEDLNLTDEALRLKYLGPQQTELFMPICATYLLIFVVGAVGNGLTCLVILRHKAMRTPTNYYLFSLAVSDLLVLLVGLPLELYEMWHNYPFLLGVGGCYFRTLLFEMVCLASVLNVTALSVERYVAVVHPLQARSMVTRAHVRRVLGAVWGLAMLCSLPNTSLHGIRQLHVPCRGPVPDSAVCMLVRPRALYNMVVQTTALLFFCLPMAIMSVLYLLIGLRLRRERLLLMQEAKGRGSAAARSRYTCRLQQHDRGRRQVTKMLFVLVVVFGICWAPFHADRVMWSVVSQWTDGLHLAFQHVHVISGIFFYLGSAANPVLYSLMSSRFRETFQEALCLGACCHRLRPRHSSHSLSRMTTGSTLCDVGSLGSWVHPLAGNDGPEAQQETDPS
In words: Agonist activity at human NMUR1 expressed in CHO cells at 10 nM by calcium mobilization assay relative to control. The format is cell-based. To be noted: read-out: Activity. On the technique in general: Calcium flux is commonly read through the fluorescence of an indicator in the cells.

In data set [3] the target is T2, Neuromedin-U receptor 1 (Homo sapiens) (UniProt Q9HB89).
T2 sequence (whole entry): T1 sequence (Q9HB89 whole entry)
The experiment in a line: Partial agonist activity at human NMUR1 expressed in CHO cells assessed as intrinsic activity at 10^-6 to 10^-12 M by calcium mobilization assay relative to control. The data set is classed as functional, cell-based. To be noted: filed as partial agonist, dose pM 1-1000000.

In data set [4] the target is T1, Neuromedin-U receptor 1. In words: Partial agonist activity at human NMUR1 expressed in CHO cells by calcium mobilization assay. The data set is classed as functional, cell-based.
Data set [5] in a line: Half life of the compound in 25% human serum. The data set is classed as ADME, cell-free.
Data set [6] addresses T3, Neuromedin-U receptor 2 (Homo sapiens, UniProt Q9GZQ4). The experiment in a line: Agonist activity at human NMUR2 expressed in CHO cells at 10 nM by calcium mobilization assay relative to control. As to conditions: read-out: Activity; call rule not given here. The format is cell-based.
For data set [7], the target named is T1, Neuromedin-U receptor 1. The experiment in a line: Agonist activity at human NMUR1 expressed in CHO cells at 1000 nM by calcium mobilization assay relative to control. The format is cell-based. To be noted: read-out: Activity.
Data set [8] addresses T3, Neuromedin-U receptor 2. The experiment in a line: Agonist activity at human NMUR2 expressed in CHO cells at 10 nM by calcium mobilization assay. The data set is classed as cell-based. To be noted: 0.01 µM.
The target of data set [9] is T1, Neuromedin-U receptor 1. The experiment in a line: Agonist activity at human NMUR1 expressed in CHO cells at 10 nM by calcium mobilization assay. The data set is classed as cell-based. As to conditions: 0.01 µM.
In data set [10] the target is T1, Neuromedin-U receptor 1. In words: Agonist activity at human NMUR1 expressed in CHO cells at 100 nM by calcium mobilization assay relative to control. The format is cell-based. As to conditions: read-out: Activity.
For data set [11], the target named is T1, Neuromedin-U receptor 1. The experiment in a line: Agonist activity at human NMUR1 expressed in CHO cells assessed as intrinsic activity at 10^-6 to 10^-12 M by calcium mobilization assay relative to control. The format is cell-based. As to conditions: read-out: Intrinsic activity.
Data set [12] concerns the target T1, Neuromedin-U receptor 1. The experiment in a line: Agonist activity at human NMUR1 expressed in CHO cells by calcium mobilization assay. The data set is classed as cell-based.
Data set [13] deals with T3, Neuromedin-U receptor 2. In words: Agonist activity at human NMUR2 expressed in CHO cells at 1000 nM by calcium mobilization assay relative to control. The format is cell-based. To be noted: read-out: Activity.
Data set [14] is described as follows: Selectivity index, ratio of EC50 for agonist activity for human NMUR2 expressed in CHO cells to EC50 for agonist activity for human NMUR1 expressed in CHO cells by calcium mobilization assay. The data set is classed as cell-based.
Data set [15] can be described thus: Stability of the compound in 25% human serum assessed as intact residual rate at 50 uM incubated for 180 mins at 37 degreeC. The data set is classed as ADME, cell-free. To be noted: read-out: Stabilty.
Data set [16] is described as follows: Drug metabolism in 25% human serum assessed as M2 metabolite formation at 50 uM incubated for 180 mins at 37 degreeC by HPLC analysis. The data set is classed as ADME, cell-free. To be noted: 3 h.
Data set [17] in a line: Drug metabolism in 25% human serum assessed as M1 metabolite formation at 50 uM incubated for 180 mins at 37 degreeC by HPLC analysis. The format is ADME, cell-free. To be noted: 3 h.
Data set [18] has as its target T3, Neuromedin-U receptor 2. The experiment in a line: Agonist activity at human NMUR2 expressed in CHO cells by calcium mobilization assay. The format is cell-based.
The target in data set [19] is T3, Neuromedin-U receptor 2. In words: Agonist activity at human NMUR2 expressed in CHO cells at 100 nM by calcium mobilization assay. As to conditions: 0.1 µM. The format is cell-based.

T3 sequence (Q9GZQ4 whole entry): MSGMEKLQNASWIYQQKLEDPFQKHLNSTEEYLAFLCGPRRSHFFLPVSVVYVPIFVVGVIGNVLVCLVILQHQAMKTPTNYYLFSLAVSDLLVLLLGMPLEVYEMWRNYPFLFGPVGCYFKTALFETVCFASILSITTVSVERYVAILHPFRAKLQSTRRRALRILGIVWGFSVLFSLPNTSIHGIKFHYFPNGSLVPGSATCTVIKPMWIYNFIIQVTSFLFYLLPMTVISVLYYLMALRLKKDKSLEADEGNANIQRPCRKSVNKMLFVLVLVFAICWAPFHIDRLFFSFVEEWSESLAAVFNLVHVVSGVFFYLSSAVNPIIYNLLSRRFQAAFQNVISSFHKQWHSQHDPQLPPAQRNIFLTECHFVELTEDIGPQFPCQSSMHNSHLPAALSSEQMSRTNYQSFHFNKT

The term EC50 denotes the concentration at which the effect is half-maximal. The half-life is the time in which the quantity being followed falls by half. Low values mean rapid decline, high ones slow decline. For the compound `N=C(N)NCCC[C@H](NC(=O)[C@@H]1CCCN1C(=O)[C@H](CCCNC(=N)N)NC(=O)[C@H](Cc1ccccc1)NC(=O)[C@H](Cc1ccc2ccccc2c1)NC(=O)CCc1cccnc1)C(=O)N[C@@H](CC(N)=O)C(N)=O` ({Propanoyl(3-(3-pyridyl))}-[2Nal]FRPRN-NH2), in data set [1], the remaining at 10 min, 50 µM turned out to be 35%. Further, the activity at 0.01 µM is 61% in [2] and 19% in data set [6]. In data set [3], the Intrinsic activity is 71%. Further, in [4], the EC50 is 1.7 nM. In addition, the half-life in [5] came to 20 min.
Take `N=C(N)NCCC[C@H](NC(=O)[C@@H]1CCCN1C(=O)[C@H](CCCNC(=N)N)NC(=O)[C@H](Cc1ccc(-c2ccccc2)cc1)NC(=O)COc1ccc2ccccc2c1)C(=O)N[C@@H](CC(N)=O)C(N)=O` ({Acetyl(2-naphthyloxy)}-[Bip]RPRN-NH2): the activity at 1 µM in data set [7] worked out at 28%. In addition, the Activity entry in [8] and in data set [9] was “Not Active” throughout.
As to `N=C(N)NCCC[C@H](NC(=O)[C@@H]1CCCN1C(=O)[C@H](CCCNC(=N)N)NC(=O)[C@H](Cc1ccc(Cc2ccccc2)cc1)NC(=O)[C@H](Cc1c[nH]c2ccccc12)NC(=O)Cc1cccs1)C(=O)N[C@@H](CC(N)=O)C(N)=O` ({Acetyl(2-thienyl)}-W[X1]RPRN-NH2), in data set [1], the remaining at 10 min, 50 µM amounted to 95%. Besides, the activity at 0.1 µM in data set [10] is 88%.
In the case of `COc1ccc(C[C@H](NC(=O)[C@H](Cc2c[nH]c3ccccc23)NC(=O)Cc2cccs2)C(=O)N[C@@H](CCCNC(=N)N)C(=O)N2CCC[C@H]2C(=O)N[C@@H](CCCNC(=N)N)C(=O)N[C@@H](CC(N)=O)C(N)=O)cc1` ({Acetyl(2-thienyl)}-WY(Me)RPRN-NH2), the remaining at 10 min, 50 µM in data set [1] came to 48%.
As for `N=C(N)NCCC[C@H](NC(=O)[C@@H]1CCCN1C(=O)[C@H](CCCNC(=N)N)NC(=O)[C@@H]1Cc2ccccc2CN1C(=O)COc1ccc2ccccc2c1)C(=O)N[C@@H](CC(N)=O)C(N)=O` ({Acetyl(2-naphthyloxy)}-[Tic]RPRN-NH2), the remaining at 10 min, 50 µM in data set [1] was 64%. Further, the activity at 0.01 µM in data set [2] is 30%. The Emax in data set [11] was determined as 67%. Moreover, the EC50 in data set [12] amounted to 30 nM. The activity at 1 µM in [13] was 48%. Further, the “Ratio EC50” value in data set [14] was found to be 30.
Turning to `N=C(N)NCCC[C@H](NC(=O)[C@@H]1CCCN1C(=O)[C@H](CCCNC(=N)N)NC(=O)[C@H](Cc1ccc(-c2ccccc2)cc1)NC(=O)[C@H](Cc1ccc2ccccc2c1)NC(=O)CCc1cccnc1)C(=O)N[C@@H](CC(N)=O)C(N)=O` ({Propanoyl(3-(3-pyridyl))}-[2Nal][Bip]RPRN-NH2), in data set [15], the remaining at 3 h, 50 µM worked out at 84%. Moreover, the Drug metabolism result in [16] and in data set [17] was “Metabolite_Detected” in each case. The activity at 0.01 µM in data set [2] amounted to 59%. The Emax in data set [11] amounted to 75%. The EC50 in data set [12] was 3.2 nM; in data set [18] it was over 1000 nM. In addition, the “Ratio EC50” value in data set [14] is reported as over 300.
Turning to `N=C(N)NCCC[C@H](NC(=O)[C@@H]1CCCN1C(=O)[C@H](CCCNC(=N)N)NC(=O)[C@H](Cc1ccc(-c2ccccc2)cc1)NC(=O)[C@H](Cc1c[nH]c2ccccc12)NC(=O)Cc1cccs1)C(=O)N[C@@H](CC(N)=O)C(N)=O` ({Acetyl(2-thienyl)}-W[Bip]RPRN-NH2), the remaining at 3 h, 50 µM in [15] stood at 35%. Also, in [1], the remaining at 10 min, 50 µM is 95%. Moreover, the Activity result in data set [19] was “Not Active”. Further, in data set [10], the activity at 0.1 µM worked out at 88%.
As to `C[C@@](Cc1ccccc1)(NC(=O)[C@H](Cc1ccc2ccccc2c1)NC(=O)CCc1cccnc1)C(=O)N[C@@H](CCCNC(=N)N)C(=O)N1CCC[C@H]1C(=O)N[C@@H](CCCNC(=N)N)C(=O)N[C@@H](CC(N)=O)C(N)=O` ({Propanoyl(3-(3-pyridyl))}-[2Nal][αMeF]RPRN-NH2), the Activity entry in data set [8] and in [9] was “Not Active” throughout.
Turning to `C[C@@](Cc1c[nH]c2ccccc12)(NC(=O)[C@H](Cc1c[nH]c2ccccc12)NC(=O)Cc1cccs1)C(=O)N[C@@H](CCCNC(=N)N)C(=O)N1CCC[C@H]1C(=O)N[C@@H](CCCNC(=N)N)C(=O)N[C@@H](CC(N)=O)C(N)=O` ({Acetyl(2-thienyl)}-W[αMeW]RPRN-NH2), the remaining at 3 h, 50 µM in data set [15] is 39%.
